The source of these data is patent publication US20200368262A1, “Use of Timosaponin Enzymatically Transformed Product in Preparation of Drugs for Inhibiting Skin Superficial Fungi” (Shanghai University of Traditional Chinese Medicine, priority 2019, published 2020).

Values after ≈ are worked out from the molar mass of the structure shown.

Holding throughout (assay): Trace liquid-based dilution MIC
Holding throughout (assay type): cell-based

In one assay the test system is Microsporum gypseum mzc. The settings on record: MIC80 (OD 630 nm reduced by 80% or more), 30° C., 7 days; for MIC: Nannizzia gypsea, 168 h, read-out: In vitro Bacteriostatic Activity (MIC) Microsporum gypseum mzc. The source says:
(§1) Trichophyton rubrum, microsporum gypseum, and trichophyton mentagrophytes were activated with a Sabouraud glucose agar culture medium, and the concentration of spores was adjusted with an RPM11640 culture solution to 1×10^35×10^3 CFU/mL.
(§2) In the present experiment, the minimum inhibitory concentrations of the ethanol extract of rhizoma anemarrhenae and the timosaponin enzymatically transformed product against five common pathogenic fungi were detected by through a trace liquid-based dilution method recommended by the Clinical and Laboratory Standards Institute and the Chinese pharmacopoeia. Fluconazole was used as a positive control drug.
(§3) A specific experimental method is as follows: candida albicans, cryptococcus neoformans, trichophyton rubrum, trichophyton mentagrophytes, and microsporum gypseum were inoculated to a 96-well plate, respectively. The drug with different concentrations was added to the culture, wherein final concentrations of the drug were 64 mg/L, 32 mg/L, 16 mg/L, 8 mg/L, 4 mg/L, 2 mg/L, 1 mg/L, and 0.5 mg/L, respectively. Fungi treated without drug was used as positive control. The candida albicans was cultured at 35° C. for 24 hours while the cryptococcus neoformans was cultured at 35° C. for 72 hours and the trichophyton rubrum, the trichophyton mentagrophytes, and the microsporum gypseum were cultured at 30° C. for 7 days. The OD value of each well under the wavelength of 630 nm was measured using an microplate reader. The lowest drug concentration with an OD value reduced by 80% or more compared with the positive control wells was considered as MIC8o, namely the drug concentration inducing 80% inhibition against fungus growth was inhibited by 80%. When the MIC80 value of the drug was higher than the maximum concentration of 64 mg/L, “>64 mg/L” was recorded.

Assay [1] relates to trichophyton mentagrophytes t5a. The settings on record: MIC80 (OD 630 nm reduced by 80% or more), 30° C., 7 days; for MIC: Trichophyton mentagrophytes, T5A, 168 h, read-out: In vitro Bacteriostatic Activity (MIC) trichophyton mentagrophytes t5a.
From the text: as §1, §2, §3

In the next assay the test system is Trichophyton rubrum tia. The settings on record: MIC80 (OD 630 nm reduced by 80% or more), 30° C., 7 days; for MIC: Trichophyton rubrum, 168 h, read-out: In vitro Bacteriostatic Activity (MIC) Trichophyton rubrum tia.
From the text: as §1, §2, §3

A further assay relates to C. albicans SC5314. Particulars: Candida albicans, MIC80 (OD 630 nm reduced by 80% or more), 35° C., 24 hours, read-out: In vitro Bacteriostatic Activity (MIC) C. albicans SC5314.
From the text: (§4) Spherical bacteria such as cryptococcus neoformans and candida albicans were taken, and activated with YEPD culture solution, and then the concentration of the bacteria solution was adjusted with RPM11640 culture solution to 1×10^3˜5 ×10^3 CFU/mL.
as §2, §3

Assay [2] has as its system Cryptococcus neoformans 32609. The settings on record: MIC80 (OD 630 nm reduced by 80% or more), 35° C., 72 hours, read-out: In vitro Bacteriostatic Activity (MIC) Cryptococcus neoformans 32609.
From the text: as §4, §2, §3

The subject of another assay is C. albicans Y0109. The settings on record: Candida albicans, MIC80 (OD 630 nm reduced by 80% or more), 35° C., 24 hours, read-out: In vitro Bacteriostatic Activity (MIC) C. albicans Y0109.
From the text: as §4, §2, §3

In general, MIC refers to the smallest concentration in the dilution series that meets the test's criterion for growth inhibition. As to `OC(Cn1cncn1)(Cn1cncn1)c1ccc(F)cc1F` [fluconazole], the MIC stood at 8 µg/mL (≈ 26.1 µM) in the assay on Microsporum gypseum mzc; 32 µg/mL (≈ 104 µM) in assay [1]; 2 µg/mL (≈ 6.53 µM) in the assay on Trichophyton rubrum tia; 0.5 µg/mL (≈ 1.63 µM) in the assay with C. albicans SC5314; 1 µg/mL (≈ 3.27 µM) in assay [2]; 1 µg/mL (≈ 3.27 µM) with C. albicans Y0109.

Regarding `CC[C@@H]([C@H](C)O)n1ncn(-c2ccc(N3CCN(c4ccc(OC[C@@H]5CO[C@@](Cn6cncn6)(c6ccc(F)cc6F)C5)cc4)CC3)cc2)c1=O` [posaconazole], the MIC in the assay on Microsporum gypseum mzc was found to be 0.25 µg/mL (≈ 0.357 µM); in assay [1], 0.25 µg/mL (≈ 0.357 µM); with Trichophyton rubrum tia, 2 µg/mL (≈ 2.85 µM); with C. albicans SC5314 it was 0.5 µg/mL (≈ 0.713 µM); in assay [2], 0.25 µg/mL (≈ 0.357 µM); in the assay with C. albicans Y0109, 1 µg/mL (≈ 1.43 µM).

With `C[C@H]1CC[C@@]2(OC1)O[C@H]1C[C@H]3[C@@H]4CC[C@@H]5C[C@@H](O[C@@H]6O[C@H](CO)[C@H](O)[C@H](O)[C@H]6O[C@@H]6O[C@H](CO)[C@@H](O)[C@H](O)[C@H]6O)CC[C@]5(C)[C@H]4CC[C@]3(C)[C@H]1[C@@H]2C` [timosaponin AIII], in the assay on Microsporum gypseum mzc (listed as timosaponin Alll), the “In vitro Bacteriostatic Activity (MIC) Microsporum gypseum mzc” value came out at 2 µg/mL. For the same compound, the MIC (in the assay with Microsporum gypseum mzc; in assay [1]; in the assay on Trichophyton rubrum tia; in the assay with C. albicans SC5314; in assay [2]; in the assay on C. albicans Y0109) was 4 µg/mL (≈ 5.4 µM) throughout. In addition, the “In vitro Bacteriostatic Activity (MIC) trichophyton mentagrophytes t5a” value in assay [1] (listed as timosaponin Alll) came out at 2 µg/mL. Further, the “In vitro Bacteriostatic Activity (MIC) Trichophyton rubrum tia” value with Trichophyton rubrum tia (listed as timosaponin Alll) came out at 2 µg/mL.
